According to patent US9221761B2, “Method for inhibition of deubiquitinating activity” (Vivolux AB, priority 2011, dated 2015):

Legend:
[1] = Dissolution in 25% by weight Kolliphor HS15; type: physicochemical; settings: for amount of compound contained in prepared solution (10 ml): 18 mg starting weight, 25% w/w Kolliphor HS15, ultrasound about 50° C., non-dissolved residue deducted
Procedure: Pharmaceutical composition E (solution). For intraperitoneal administration a 25% by weight Kolliphor HS15 stock solution was prepared by melting an entire container of Kolliphor HS15 (Sigma 42966) by warming to 60° C. and diluting with deionized water to 25% w/w. To compound #1570 (18.0 mg) in a 10 mL sample tube was added 10.0 mL of the stock solution and the tube vortexed, treated with ultrasound at about 50° C. for about 2 h, and occasionally heated to about 83° C. […] By the same procedure solutions of compounds #1546 and #1571 were prepared; these compounds were however not fully dissolved. The non-dissolved residue was weighed, and the weight deducted from the starting weight of compound (18 mg).

[2] = tested on: MelJuSo Ub-YFP reporter cell line; test: Proteasome inhibition in reporter cell line, YFP accumulation in IncuCyte-FLR; type: cell-based; settings: YFP accumulation measured for 48 hours; for MeJuSo-UB, lowest effective conc.: Table 2; for MeJuSo-UB, IncuCyte lowest effective conc.: Table 1
Excerpt: Cell culture. MCF7 cells are maintained in MEM/10% fetal calf serum. HCT-116 p53+/+, p53−/−, Bcl-2+/+, PUMA−/− and BAX−/− cells are maintained in McCoy's 5A modified medium/10% fetal calf serum. The HCT-116 p53+/+, p53−/−, PUMA−/− and BAX−/− are generated as described (25). The HCT-116 Bcl-2+/+ cell line was generated by transfecting parental HCT-116 p53+/+ cells with pCEP4 Bcl-2 (Addgene plasmid 16461) (26) and isolating high expression clones. FaDu and LLC3 cells are maintained in DMEM high glucose medium supplemented with 10% fetal calf serum, Na pyruvate, Hepes and non-essential amino acids. 4T1.12B carcinoma cells are maintained in RPMI medium supplemented with 10% fetal calf serum. The proteasome reporter cell line MelJuSo Ub-YFP was generated as described (12). Cells were maintained in Dulbecco's Modified Eagle's Medium/10% fetal calf serum. […] The retinal epithelial cell line was generated as described (28). All cells are maintained at 37° C. in 5% CO2.
The compound of the invention induces proteasome inhibition. The reporter cell line MelJuSo Ub-YFP, which is engineered to accumulate yellow fluorescent protein (YFP) upon proteasome inhibition (12), was used for compound evaluation. The accumulation of YFP was measured for 48 hours in an IncuCyte-FLR system (Essen Bioscience, Essen, UK), which is an automated fluorescence microscope. Numbers of positive cells per field were used as a measure of proteasome inhibition.

HCT116 = test: FMCA (Fluorometric Microculture Cytotoxicity Assay) cytotoxicity; type: cell-based; settings: for cytotoxicity relative to structurally corresponding compounds with a 6-membered ring moiety: HCT-116, 72 hours, survival index, FIGS. 3b, 3d, 3f; for IC50: 72 hours of continuous compound exposure
Procedure: FIGS. 1a to 1o are diagrams illustrating induction of dose-dependent cytotoxicity after 72 hours of continuous compound exposure to the reporter cell line HCT-116 by embodiments of the compound of the invention, as measured FMCA (Fluorometric Microculture Cytotoxicity Assay), as well as absence of such induction by structurally related compounds not comprised by the invention. Treated cells were compared to untreated controls (survival index);
Determination of cell apoptosis and viability. For determination of apoptosis parental HCT-116 p53+/+ cells are treated with the increasing doses of the compound of the invention for 24 h. […] HCT-116 cells are seeded in 96-well microtiter plates at 10,000 cells per well and incubated overnight. Cells are treated with indicated drug for 24 h. At the end of the incubation period, NP40 is added to the tissue culture medium to 0.1% and 25 μl of the content of each well was assayed using the M30-Apoptosense® ELISA as previously described (31). Cell viability is determined by measuring acid phosphatase activity or using the FMCA method (32). For the acid phosphatase activity cells are seeded at 5000 cells per well in 96-well culture plates and incubated for 12 h at 37° C. Compounds are added to the cells in growth media and incubated for 72 h at 37° C. Cells are washed with 200 μl warm PBS. 100 μl of para-nitrophenyl phosphate (pNPP, 2 mg/ml) in Na acetate buffer pH 5 (NaAc 0.1 M, 0.1% Triton-X-100) is added per well. Cells are incubated for 2 h after which reaction was stopped by addition of 1N NaOH. Absorbance is measured at 405 nm. The dose-dependent cytotoxicity of a number of embodiments of the compound of the invention is illustrated in FIGS. 1a-1o.
For the FMCA assay cells are seeded in the drug-prepared 384-well plates using the pipetting robot Precision 2000 (Bio-Tek Instruments Inc., Winooski, Vt.). The plates are incubated for 72 h and then transferred to an integrated HTS SAIGAN Core System consisting of an ORCA robot (Beckman Coulter) with CO2 incubator (Cytomat 2C, Kendro, Sollentuna, Sweden), dispenser module (Multidrop 384, Titertek, Huntsville, Ala.), washer module (ELx 405, Bio-Tek Instruments Inc), delidding station, plate hotels, barcode reader (Beckman Coulter), liquid handler (Biomek 2000, Beckman Coulter) and a multipurpose reader (FLUOstar Optima, BMG Labtech GmbH, Offenburg, Germany) for automated FMCA. Survival index (SI) is defined as the fluorescence of test wells in percentage of controls with blank values subtracted.
FIGS. 3b, 3d, 3f are diagrams illustrating the cytotoxicity of compounds of the invention nos. 1546, 1547, and 1570 with a 7-membered ring moiety in comparison to structurally corresponding compounds not comprised by the invention with a 6-membered ring moiety. Their induction of dose-dependent cytotoxicity was determined after 72 hours of continuous compound exposure to the reporter cell line HCT-116. Treated cells were compared with untreated controls. Cytotoxicity is visualized as survival index (SI) over the range of about 90% SI to about 0% SI in dependence on compound concentration.

| Molecule | MeJuSo-UB, lowest effective conc. [2] | IC50 (HCT116; Table 2) | MeJuSo-UB, IncuCyte lowest effective conc. [2] | also measured |
| --- | --- | --- | --- | --- |
| C=CC(=O)N1CCC(=Cc2ccc(F)c([N+](=O)[O-])c2)C(=O)C(=Cc2ccc(F)c([N+](=O)[O-])c2)C1 [Compound 1570] | 0.25 µM | 0.5 µM | – | dissolution of 18.0 mg in 10.0 mL stock solution ([1]; 25% w/w Kolliphor HS15, ultrasound about 50° C. about 2 h): clear solution; cytotoxicity relative to structurally corresponding compounds with a 6-membered ring moiety (HCT116): more cytotoxic |
| CC(=O)N1CCC(=Cc2ccc(F)c([N+](=O)[O-])c2)C(=O)C(=Cc2ccc(F)c([N+](=O)[O-])c2)C1 [Compound 1571] | 0.25 µM | 0.9 µM | – | amount of compound contained in prepared solution (10 ml) [1]: 11.0 mg |
| C=CC(=O)N1CCC(=Cc2ccc(F)cc2)C(=O)C(=Cc2ccc(F)cc2)C1 [Compound 1568] | 2 µM | 1.5 µM | – | – |
| CC(=O)OCCC(=O)N1CCC(=Cc2ccc(Cl)c(C(F)(F)F)c2)C(=O)C(=Cc2ccc(Cl)c(C(F)(F)F)c2)C1 [Compound 1666] | 1 µM | 1.3 µM | – | – |
| COc1ccc(/C=C2\CN(C)CC/C(=C\c3ccc(F)cc3)C2=O)cc1 [Compound 1577, (3E,5E)-5-[(4-fluorophenyl)methylidene]-3-[(4-methoxyphenyl)methylidene]-1-methylazepan-4-one] | – | – | 8 µM | IC50 (HCT116; Homo sapiens, HCT-116, Table 1): 4.9 µM |
| (3E,5E)-1-acetyl-5-[(4-fluorophenyl)methylidene]-3-[(4-ethoxyphenyl)methylidene]azepan-4-one [Compound 1579] | 8 µM | 5.9 µM | – | – |
| O=C1/C(=C/c2ccc(F)c([N+](=O)[O-])c2)CCN(C(=O)Cc2ccccn2)C/C1=C\c1ccc(F)c([N+](=O)[O-])c1 [Compound 1648] | 0.5 µM | 0.8 µM | – | – |
| C=CC(=O)N1CCC(=Cc2ccc([N+](=O)[O-])cc2)C(=O)C(=Cc2ccc([N+](=O)[O-])cc2)C1 [Compound 1546] | 2 µM | 1.2 µM | – | amount of compound contained in prepared solution (10 ml) [1]: 8.5 mg; cytotoxicity relative to structurally corresponding compounds with a 6-membered ring moiety (HCT116): more cytotoxic |
| CN1CCC(=Cc2ccc(C#N)cc2)C(=O)C(=Cc2ccc(C#N)cc2)C1 [Compound 1621] | – | – | 2 µM | IC50 (HCT116; Table 1): 4.5 µM |
| CN1CCC(=Cc2ccc(C(F)(F)F)c(F)c2)C(=O)C(=Cc2ccc(C(F)(F)F)c(F)c2)C1 [Compound 1624] | – | – | 1 µM | IC50 (HCT116; Table 1): 1.8 µM |
| O=C1C(=Cc2ccc([N+](=O)[O-])cc2)CCNCC1=Cc1ccc(F)cc1 [Compound 1596] | – | – | 2 µM | IC50 (HCT116; Table 1): 2.6 µM |
| CC(=O)N1CCC(=Cc2ccc(Cl)c(F)c2)C(=O)C(=Cc2ccc(Cl)c(F)c2)C1 [Compound 1630] | 0.5 µM | 0.9 µM | – | – |
| CC(=O)OCCC(=O)N1CCC(=Cc2cc(F)c(F)c(F)c2)C(=O)C(=Cc2cc(F)c(F)c(F)c2)C1 [Compound 1664] | 4 µM | 2.8 µM | – | – |
| O=C1C(=Cc2ccc(Cl)c(C(F)(F)F)c2)CCN(C(=O)Cc2cccnc2)CC1=Cc1ccc(Cl)c(C(F)(F)F)c1 [Compound 1655] | 1 µM | 1 µM | – | – |
| COc1ccc(C=C2CN(C)CCC(=Cc3ccc(Cl)cc3)C2=O)cc1 [Compound 1590] | – | – | 1 µM | IC50 (HCT116; Table 1): 2 µM |
| O=C1C(=Cc2ccc(C(F)(F)F)c(F)c2)CCNCC1=Cc1ccc(C(F)(F)F)c(F)c1 [Compound 1626] | – | – | 8 µM | IC50 (HCT116; Table 1): 0.8 µM |
| CC(=O)OCCC(=O)N1CCC(=Cc2ccc(Cl)cc2)C(=O)C(=Cc2ccc(Cl)cc2)C1 [Compound 1633] | 4 µM | 2.2 µM | – | – |
| CC(=O)OCCC(=O)N1CCC(=Cc2ccc(Cl)c(F)c2)C(=O)C(=Cc2ccc(Cl)c(F)c2)C1 [Compound 1660] | 2 µM | 2.4 µM | – | – |
